# Assay results: patent US12534466B2, “Crystalline forms of pyrimidino diazepine derivative” (CYCLACEL LIMITED, priority 2019, dated 2026)
# Where a name gives a salt, the structure may show the parent alone. Read-outs that look alike come from different tables or passages of the source.
# Columns and labels:
# [1] = target: polo-like kinase 1 (PLK1) (Homo sapiens, UniProt P53350); settings: cited from earlier work
# [2] = Gravimetric vapour sorption (GVS/DVS) hygroscopicity; format: physicochemical; settings: for Hygroscopicity classification: weight increase from 40-80% RH (25° C.), classes of Table 9, monohydrate
# Procedure: Sorption isotherms were obtained using a Hiden Isochema moisture sorption analyser (model IGAsorp), controlled by IGAsorp Systems Software V6.50.48. The sample was maintained at a constant temperature (25° C.) by the instrument controls. The humidity was controlled by mixing streams of dry and wet nitrogen, with a total flow of 250 ml·min^−1. The instrument was verified for relative humidity content by measuring three calibrated Rotronic salt solutions (10-50-88%). The weight change of the sample was monitored as a function of humidity by a microbalance (accuracy+/−0.005 mg). A defined amount of sample was placed in a tared mesh stainless steel basket under ambient conditions. A full experimental cycle typically consisted of three scans (sorption, desorption and sorption) at a constant temperature (25° C.) and 10% RH intervals over a 0-90% range (60 minutes for each humidity level).
# Chain of polo-like kinase 1 (PLK1) (P53350 whole entry): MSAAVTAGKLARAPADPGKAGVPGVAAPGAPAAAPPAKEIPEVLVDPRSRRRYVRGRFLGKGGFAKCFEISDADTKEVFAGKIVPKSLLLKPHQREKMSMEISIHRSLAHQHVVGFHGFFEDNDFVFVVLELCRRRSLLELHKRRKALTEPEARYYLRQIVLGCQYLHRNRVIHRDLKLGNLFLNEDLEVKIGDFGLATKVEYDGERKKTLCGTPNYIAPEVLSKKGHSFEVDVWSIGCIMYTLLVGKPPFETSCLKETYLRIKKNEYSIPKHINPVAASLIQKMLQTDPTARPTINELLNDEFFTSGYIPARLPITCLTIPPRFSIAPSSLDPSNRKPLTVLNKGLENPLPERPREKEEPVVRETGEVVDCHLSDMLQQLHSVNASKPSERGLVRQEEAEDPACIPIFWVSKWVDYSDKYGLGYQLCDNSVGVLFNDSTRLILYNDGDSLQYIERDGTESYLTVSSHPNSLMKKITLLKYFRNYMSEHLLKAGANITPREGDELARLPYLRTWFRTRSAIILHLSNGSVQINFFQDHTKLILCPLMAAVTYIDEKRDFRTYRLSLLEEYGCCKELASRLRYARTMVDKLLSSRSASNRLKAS
Hygroscopicity (in words) [2],Stability of the crystalline form (in words) [2],"Weight change (%) from 40 to 80% RH @25° C. (sorption cycle by GVS) ([2]; 40-80% RH, 25° C., sorption cycle)",Hygroscopicity classification ([2]; listed as monohydrochloride monohydrate salt),Hygroscopicity classification [2],Compound,Inhibition of PLK1 (in words) [1],Inhibition of PLK1 (in words) ([1]; listed as compound (I))
–,–,–,–,–,"COc1cc(C(=O)N[C@H]2CC[C@H](N3CCN(C)CC3)CC2)ccc1Nc1ncc2c(n1)N(C1CCCC1)CC1(CC1)C(=O)N2C [Compound (I), 4-(9′-cyclopentyl-5″-methyl-6′-oxo-5′,6′,8′,9′-tetrahydrospiro[cyclopropane-1,7′-pyrimido[4,5-b][1,4]diazepine]-2′-ylamino)-N((trans)-4-(4-methylpiperazin-1-yl)cyclohexyl)-3-methoxybenzamide]",potent inhibitory activity,potent inhibitor
relatively low hygroscopicity,stable crystalline form,+0.9%,slightly hygroscopic,Slightly hygroscopic (≥0.2% and <2%),COc1cc(C(=O)N[C@H]2CC[C@H](N3CCN(C)CC3)CC2)ccc1Nc1ncc2c(n1)N(C1CCCC1)CC1(CC1)C(=O)N2C [Monohydrochloride monohydrate],–,–
